For one data set, the system named is Plasmodium falciparum. The data set can be described thus: MMV: Inhibition of Plasmodium falciparum 3D7 at 5uM compound concentration. It counts as functional.
Another data set deals with Trypanosoma cruzi. The data set can be described thus: MMV: Inhibition of Trypanosoma cruzi (Tulahuen C4 LacZ) (Chagas in vitro). It is filed as functional, organism-based.
For data set [1], the system named is Trypanosoma brucei brucei. The data set can be described thus: MMV: Inhibition of Trypanosoma brucei brucei (Squib 427) (HAT in vitro). It counts as functional, organism-based.
Data set [2] concerns Trypanosoma brucei rhodesiense. The data set can be described thus: MMV: Inhibition of Trypanosoma brucei rhodesiense (STIB 900) (HAT in vitro). It counts as functional, organism-based.
For the next data set, the system named is Leishmania infantum. The data set can be described thus: MMV: Inhibition of Leishmania infantum (MHOM/MA/BE/67) in vitro. It counts as functional, organism-based.
Data set [3] in a line: MMV: Cytotoxicity against human fibroblasts (MRC-5) cells. As to conditions: MRC-5 cells (human fibroblasts).

`Oc1ccc(C(=C(Cl)Cl)c2ccc(O)cc2)cc1`: testing at 5 µM with Plasmodium falciparum gave an inhibition of 95%. Also, the IC50 (with Trypanosoma cruzi; in data set [1]; in data set [2]; in the data set with Leishmania infantum; in data set [3]) was more than 32 µM throughout.
Turning to `O=C(Nc1ccccc1O)c1ccc(-c2ccc(Cl)cc2Cl)o1`, in the data set with Plasmodium falciparum, the inhibition at 5 µM worked out at 97%. Moreover, the IC50 was more than 32 µM in the data set on Trypanosoma cruzi; 13.7 µM in data set [1]; 13.5 µM in data set [2]; more than 32 µM with Leishmania infantum; more than 32 µM in data set [3].
Consider `O=C(Nc1ccc(-c2nc3cc(NC(=O)c4ccc(Cl)cc4)ccc3[nH]2)cc1)c1ccc(Cl)cc1`, for which the IC50 (with Trypanosoma cruzi; in data set [1]; in data set [2]; in the data set on Leishmania infantum; in data set [3]) was more than 32 µM throughout.
In the data set with Plasmodium falciparum, `COc1ccc(C2N(C)c3ccccc3N2C)cc1` yielded an inhibition at 5 µM of 62%. For the same compound, the IC50 (in the data set with Trypanosoma cruzi; in data set [1]; in data set [2]; in the data set on Leishmania infantum; in data set [3]) was more than 32 µM each time.
In turn, `CCOC(=O)c1c[nH]c2c(CC)cccc2c1=O` returned an inhibition at 5 µM in the data set on Plasmodium falciparum of 87%. The IC50 (in the data set on Trypanosoma cruzi; in data set [1]; in data set [2]; with Leishmania infantum; in data set [3]) was more than 32 µM throughout.
`Cn1c(C(=O)c2cccc3ccccc23)nc2ccccc21` returned an inhibition at 5 µM in the data set with Plasmodium falciparum of 89%. The IC50 in the data set with Trypanosoma cruzi was more than 32 µM; in data set [1] it was more than 32 µM; in data set [2], 29.2 µM; in the data set with Leishmania infantum, 16 µM; in data set [3], more than 32 µM.
Compound `CCOc1cccc2sc(N(Cc3cccnc3)C(=O)C3CCCCC3)nc12` returned an inhibition at 5 µM in the data set on Plasmodium falciparum of 94%. Also, the IC50 was 0.165 µM in the data set with Trypanosoma cruzi; 27 µM in data set [1]; 16 µM in data set [2]; 19 µM in the data set with Leishmania infantum; more than 32 µM in data set [3].
As for `CCOC(=O)c1cnc2ccc(OC)cc2c1NCc1ccccc1`, in the data set with Plasmodium falciparum, the inhibition at 5 µM turned out to be 87%. For the same compound, the IC50 is 13 µM in the data set on Trypanosoma cruzi; 14.9 µM in data set [1]; 4.95 µM in data set [2]; 10.1 µM in the data set on Leishmania infantum; more than 32 µM in data set [3].
Take `Cc1ccc(C)c(-c2csc(Nc3ccc(C)c(C)c3)n2)c1`: the inhibition at 5 µM with Plasmodium falciparum was 94%. The IC50 in the data set with Trypanosoma cruzi is 19.3 µM; in data set [1], more than 32 µM; in data set [2] it was 22.8 µM; in the data set on Leishmania infantum it was more than 32 µM; in data set [3], more than 32 µM.
For `CCOc1cccc(C(=O)Nc2ccc(-c3nc4ccccc4[nH]3)cc2)c1`, the IC50 in the data set with Trypanosoma cruzi is more than 32 µM; in data set [1], more than 32 µM; in data set [2], more than 32 µM; in the data set on Leishmania infantum it was 16.2 µM; in data set [3] it was more than 32 µM.
In the data set with Plasmodium falciparum, `Oc1c2c(nc3cc(-c4ccccc4)nn13)CCCC2` gave an inhibition at 5 µM of 77%. Moreover, the IC50 in the data set on Trypanosoma cruzi was more than 32 µM; in data set [1], 12.8 µM; in data set [2], 8 µM; with Leishmania infantum it was more than 32 µM; in data set [3], more than 32 µM.
Consider `CCOc1ccc(CCNC(=O)c2cccs2)cc1OCC`, for which at 5 µM the inhibition with Plasmodium falciparum was 95%. Moreover, the IC50 (in the data set on Trypanosoma cruzi; in data set [1]; in data set [2]; in the data set on Leishmania infantum; in data set [3]) was more than 32 µM in each case.
Take `CCN1CCN(c2c(C(=O)c3ccccc3)cnc3cc(OC)c(OC)cc23)CC1`: the inhibition at 5 µM with Plasmodium falciparum was 59%. Moreover, the IC50 was more than 32 µM in the data set on Trypanosoma cruzi; more than 32 µM in data set [1]; 17.9 µM in data set [2]; more than 32 µM in the data set with Leishmania infantum; more than 32 µM in data set [3].
As for `CCN1CCN(c2cc(C)c3cc(NC(=O)c4ccc(OC)c(OC)c4)ccc3n2)CC1`, the IC50 was 6.59 µM in the data set on Trypanosoma cruzi; 4.78 µM in data set [1]; 3.22 µM in data set [2]; 6.35 µM in the data set with Leishmania infantum; 5.46 µM in data set [3].
Consider `COc1ccc(-c2nonc2NC(=O)c2cccc(Cl)c2)cc1OC`, for which the IC50 (in the data set with Trypanosoma cruzi; in data set [1]; in data set [2]; in the data set with Leishmania infantum; in data set [3]) was more than 32 µM throughout.
Turning to `O=C(Nc1ccccc1O)c1ccc(Oc2cccc(C(=O)Nc3ccccc3O)c2)cc1`, the inhibition at 5 µM with Plasmodium falciparum stood at 91%. Besides, the IC50 (in the data set on Trypanosoma cruzi; in data set [1]; in data set [2]; in the data set on Leishmania infantum; in data set [3]) was more than 32 µM in each case.
Take `CCCCOc1ccc(C(=O)Nc2cc(C)on2)cc1`: the inhibition at 5 µM with Plasmodium falciparum came out at 73%. Also, the IC50 (in the data set on Trypanosoma cruzi; in data set [1]; in data set [2]; in the data set on Leishmania infantum; in data set [3]) was more than 32 µM in each case.
As for `COc1ccccc1N1CCN(C(CNS(=O)(=O)c2ccc(Cl)cc2)c2cccnc2)CC1` (stereo unspecified), testing at 5 µM with Plasmodium falciparum gave an inhibition of 93%. The IC50 in the data set on Trypanosoma cruzi was 0.899 µM; in data set [1], 16.2 µM; in data set [2], 16.2 µM; in the data set on Leishmania infantum, more than 32 µM; in data set [3], more than 32 µM.
In the data set on Plasmodium falciparum, `COc1ccc(N2CCN(C(CNC(=O)CC(C)(C)C)c3ccc4c(c3)OCO4)CC2)cc1` (stereo unspecified) yielded an inhibition at 5 µM of 95%. Besides, the IC50 in the data set with Trypanosoma cruzi is 19.7 µM; in data set [1], more than 32 µM; in data set [2], 27.6 µM; in the data set on Leishmania infantum, more than 32 µM; in data set [3] it was more than 32 µM.
As to `O=c1c2c([nH]c3ccccc13)CCCC2`, in the data set on Plasmodium falciparum, the inhibition at 5 µM came to 82%. Also, the IC50 (in the data set with Trypanosoma cruzi; in data set [1]; in data set [2]; with Leishmania infantum; in data set [3]) was more than 32 µM in each case.
On to `Cc1ccc(NC(=O)Nc2cccc(Cl)c2)cc1F`, for which, in the data set with Plasmodium falciparum, the inhibition at 5 µM turned out to be 52%. The IC50 with Trypanosoma cruzi was 6.29 µM; in data set [1] it was 5.81 µM; in data set [2], 4.03 µM; in the data set on Leishmania infantum it was more than 32 µM; in data set [3], more than 32 µM.
`O=C(NC1CCCC1)c1ccc(N2CCC(NCc3cccc(C(F)(F)F)c3)CC2)cc1`: in the data set with Plasmodium falciparum, the inhibition at 5 µM came out at 93%. The IC50 in the data set with Trypanosoma cruzi was 21.3 µM; in data set [1], more than 32 µM; in data set [2], 14.4 µM; in the data set with Leishmania infantum, 16.6 µM; in data set [3] it was more than 32 µM.
In the data set with Plasmodium falciparum, `O=C(Nc1ccsc1C(=O)NC1CCCCC1)c1ccc(F)cc1` yielded an inhibition at 5 µM of 86%. In addition, the IC50 (with Trypanosoma cruzi; in data set [1]; in data set [2]; in the data set with Leishmania infantum; in data set [3]) was more than 32 µM each time.
Compound `Cc1ccc(-c2nc3ccccc3o2)cc1NCc1cc(Cc2ccccc2)ccc1O` showed an inhibition at 5 µM with Plasmodium falciparum of 64%. Further, the IC50 with Trypanosoma cruzi was more than 32 µM; in data set [1] it was more than 32 µM; in data set [2] it was more than 32 µM; in the data set with Leishmania infantum, 16.2 µM; in data set [3], more than 32 µM.
Consider `Cc1ccc(OCCCCCCNCCO)c(C)c1`, for which 5 µM produced 49% inhibition in the data set with Plasmodium falciparum. Moreover, the IC50 with Trypanosoma cruzi was 16 µM; in data set [1], 3.72 µM; in data set [2], 3.94 µM; in the data set with Leishmania infantum, 16.1 µM; in data set [3] it was more than 32 µM.
`O=C(Nc1cccc(C(F)(F)F)c1)c1cc(Cl)ccc1O`: testing at 5 µM in the data set on Plasmodium falciparum gave an inhibition of 93%. Besides, the IC50 turned out to be 0.343 µM with Trypanosoma cruzi; 0.657 µM in data set [1]; 0.7 µM in data set [2]; 16.2 µM with Leishmania infantum; 0.241 µM in data set [3].
In the data set on Plasmodium falciparum, `COc1ccc(-c2nonc2NC(=O)c2cccc(C)c2)cc1OC` returned an inhibition at 5 µM of 95%. The IC50 (in the data set with Trypanosoma cruzi; in data set [1]; in data set [2]; in the data set with Leishmania infantum; in data set [3]) was more than 32 µM in each case.
Consider `COc1cccc(C(=O)Nc2ccc(-c3nc4ccccc4[nH]3)cc2)c1`, for which the inhibition at 5 µM with Plasmodium falciparum stood at 83%. In addition, the IC50 was more than 32 µM in the data set with Trypanosoma cruzi; more than 32 µM in data set [1]; more than 32 µM in data set [2]; 16.2 µM with Leishmania infantum; more than 32 µM in data set [3].
`CCOc1ccccc1NC(=O)CN1CCN(C(=O)c2ccco2)CC1` yielded an inhibition at 5 µM in the data set with Plasmodium falciparum of 83%. Also, the IC50 (in the data set with Trypanosoma cruzi; in data set [1]; in data set [2]; with Leishmania infantum; in data set [3]) was more than 32 µM each time.
For `CCCc1c(C)nc2ccccc2c1O`, 5 µM produced 88% inhibition in the data set with Plasmodium falciparum. For the same compound, the IC50 (in the data set with Trypanosoma cruzi; in data set [1]; in data set [2]; in the data set on Leishmania infantum; in data set [3]) was more than 32 µM in each case.
In the case of `CC(=O)c1ccc(NC(=O)CSc2nc(-c3ccccc3Cl)ns2)cc1`, the IC50 (in the data set with Trypanosoma cruzi; in data set [1]; in data set [2]; with Leishmania infantum; in data set [3]) was more than 32 µM in each case.
Consider `CCN(CC)c1cc(C)c2cc(NC(=O)c3cccc(OC)c3)ccc2n1`, for which the IC50 in the data set on Trypanosoma cruzi was found to be 13.7 µM; in data set [1], 14.3 µM; in data set [2], 0.679 µM; with Leishmania infantum it was 16.2 µM; in data set [3], 15.3 µM.
The like results for `COc1cc2cc(C(=O)Nc3ccccc3)c(N)nc2cc1OC` were, in that order, more than 32 µM, more than 32 µM, more than 32 µM, more than 32 µM and more than 32 µM.
The like results for `CCOC(=O)c1cnc2ccc(OC)cc2c1Nc1ccc(N2CCN(C)CC2)cc1` were, in that order, 4.13 µM, 32 µM, 3.82 µM, more than 32 µM and 13.9 µM.
On to `COc1ccc(C(=O)Nc2ccc3nc(N4CCCCC4)cc(C)c3c2)cc1OC`, for which the IC50 in the data set on Trypanosoma cruzi worked out at 14.6 µM; in data set [1] it was 16.2 µM; in data set [2], 10.9 µM; with Leishmania infantum, 16.2 µM; in data set [3], 16.4 µM.

The values above are taken from ChEMBL document CHEMBL2028040, “Malaria Box”.
